Results from ChEMBL document CHEMBL4715849, “Recent Progress in the Discovery of Antifungal Agents Targeting the Cell Wall” (J Med Chem, 2020).
≈ marks a conversion by molar mass, not a printed value.

Assays:
[1] = Inhibition of Beta-1,3-glucan synthase in Schizosaccharomyces pombe pbr1-8
[2] = Inhibition of Cryptococcus neoformans (H99) 1,3-beta-glucan synthase component FKS1 using UDP-[14C]glucose as substrate; design: species or system Cryptococcus neoformans var. grubii H99
Pichia kudriavzevii [3] = test: Antifungal activity against Candida krusei incubated for 24 hrs by CLSI method; assay type: functional
Aspergillus fumigatus [4] = test: Antifungal activity against Aspergillus fumigatus CF1083 infected in iv dosed mouse model of pulmonary aspergillosis administered once daily for 4 days and measured on day 14; assay type: functional; settings: 336 h, time 14 day
Nakaseomyces glabratus [5] = test: Antifungal activity against Candida glabrata incubated for 24 hrs by CLSI method; assay type: functional
[6] = Inhibition of Beta-1,3-glucan synthase in Schizosaccharomyces pombe pbr1-6
Candida parapsilosis [7] = test: Antifungal activity against Candida parapsilosis incubated for 24 hrs by CLSI method; assay type: functional; settings: Lodderomyces parapsilosis
[8] = Inhibition of Beta-1,3-glucan synthase in wild type Schizosaccharomyces pombe
Candida tropicalis = test: Antifungal activity against Candida tropicalis incubated for 24 hrs by CLSI method; assay type: functional
Candida albicans [9] = test: Antifungal activity against Candida albicans incubated for 24 hrs by CLSI method; assay type: functional
Cryptococcus neoformans = test: Antifungal activity against Cryptococcus neoformans H99 incubated for 72 hrs by CLSI M27A method; assay type: functional; settings: var grubii H99
[10] = Inhibition of Candida albicans GFA1 using D-Fru6P and L-glutamine as substrate by absorbance method
Candida albicans [11] = test: Antifungal activity against Candida albicans ATCC 10231 by CLSI-based serial dilution method; assay type: functional
[12] = Half life in Beagle dog at 1.4 mg/kg, iv measured up to 72 hrs by LC-MS/MS analysis; assay type: ADME, organism-based, Canis lupus familiaris; settings: in vivo
[13] = Half life in human at 50 mg by liquid chromatography-tandem mass spectrometry method; assay type: ADME; settings: in vivo
Pichia kudriavzevii [14] = test: Antifungal activity against Candida krusei DSM 6128 by CLSI-based serial dilution method; assay type: functional
[15] = Antifungal activity against Candida arborea KKP319 by CLSI-based serial dilution method; assay type: functional
Nakaseomyces glabratus [16] = test: Antifungal activity against Candida glabrata DSM 11226 by CLSI-based serial dilution method; assay type: functional
[17] = Inhibition of Candida albicans GFA1 using D-Fru6P and L-glutamine as substrate incubated for 30 mins by Elson-Morgan method
Aspergillus fumigatus [18] = test: Antifungal activity against Aspergillus fumigatus MF5668 by CLSI method; assay type: functional
Candida albicans [19] = test: Antifungal activity against Candida albicans Ca2323/ORF6.945 by CLSI method; assay type: functional
Candida albicans [20] = test: Antifungal activity against Candida albicans Ca1055 by CLSI method; assay type: functional
Candida parapsilosis [21] = test: Antifungal activity against Candida parapsilosis ATCC22019 by CLSI method; assay type: functional; settings: Lodderomyces parapsilosis
Candida albicans [22] = test: Antifungal activity against Candida albicans A9540 infected in iv dosed ICR mouse assessed as protection against fungus-induced lethal infection dosed once immediately following fungal challenge and measured on day 20 post infection; assay type: functional; settings: 480 h, time 20 day, read-out: PD50
Erythrocyte = test: Hemolytic activity in ICR mouse red blood cells incubated for 2 hrs by visual observation; assay type: ADME, cell-based
Clavispora lusitaniae = test: Antifungal activity against Candida lusitaniae MY1396 by CLSI method; assay type: functional
Nakaseomyces glabratus [23] = test: Antifungal activity against Candida glabrata MY1381 by CLSI method; assay type: functional

CC[C@H](C)C[C@H](C)CCCCCCCCC(=O)N[C@H]1C[C@@H](O)[C@@H](NCCN)NC(=O)[C@@H]2[C@@H](O)CCN2C(=O)[C@H]([C@H](O)CCN)NC(=O)[C@H]([C@H](O)[C@@H](O)c2ccc(O)cc2)NC(=O)[C@@H]2C[C@@H](O)CN2C(=O)[C@H]([C@@H](C)O)NC1=O [CASPOFUNGIN]
IC50 [1]: 250 µg/mL (≈ 229 µM)
Ki [2]: 0.17 µM
MIC90 (Pichia kudriavzevii [3]): 1 µg/mL (≈ 0.915 µM)
ED50 (Aspergillus fumigatus [4]): > 15 mg/kg
MIC90 (Nakaseomyces glabratus [5]): 16 µg/mL (≈ 14.6 µM)
IC50 [6]: 150 µg/mL (≈ 137 µM)
MIC90 (Candida parapsilosis [7]): 0.5 µg/mL (≈ 0.457 µM)
IC50 [8]: 0.3 µg/mL (≈ 0.274 µM)
MIC90 (Candida tropicalis): 1 µg/mL (≈ 0.915 µM)
MIC90 (Candida albicans [9]): 2 µg/mL (≈ 1.83 µM)
MIC (Cryptococcus neoformans): 16 µg/mL (≈ 14.6 µM)

CC(=O)N[C@H]1C(O)O[C@H](CS(=O)(=O)O)[C@@H](O)[C@@H]1O (stereo partly drawn)
IC50 [10]: > 5000 µM
MIC (Candida albicans [11]): 500 µg/mL (≈ 1750 µM)

CC(=O)[O-].CCCCCOc1ccc(-c2ccc(-c3ccc(C(=O)N[C@H]4C[C@@H](O)[C@@H](NCC[N+](C)(C)C)NC(=O)[C@@H]5[C@@H](O)[C@@H](C)CN5C(=O)[C@H]([C@@H](C)O)NC(=O)[C@H]([C@H](O)[C@@H](O)c5ccc(O)cc5)NC(=O)[C@@H]5C[C@@H](O)CN5C(=O)[C@H]([C@@H](C)O)NC4=O)cc3)cc2)cc1
half-life [12]: 53.1 h
half-life [13]: > 130 h

COS(=O)(=O)C[C@H]1OC(O)[C@H](N)[C@@H](O)[C@@H]1O (stereo partly drawn)
MIC (Pichia kudriavzevii [14]): > 4000 µg/mL
MIC (Candida albicans [11]): > 4000 µg/mL
MIC [15]: > 4000 µg/mL
MIC (Nakaseomyces glabratus [16]): > 4000 µg/mL

N[C@H]1C(O)O[C@H](CS(=O)(=O)O)[C@@H](O)[C@@H]1O (stereo partly drawn)
IC50 [10]: 80 µM
MIC (Candida albicans [11]): 1000 µg/mL (≈ 4110 µM)

N[C@@H](CO)[C@@H](O)[C@H](O)[C@H](O)CS(=O)(=O)O
IC50 [17]: 130 µM
MIC (Candida albicans [11]): 1000 µg/mL (≈ 4080 µM)

Nc1ccccc1C(=O)OCC#CCOC(=O)c1ccccc1N
MIC (Aspergillus fumigatus [18]): 4 µg/mL (≈ 12.3 µM)
MIC (Candida albicans [19]): 4 µg/mL (≈ 12.3 µM)
MIC (Candida albicans [20]): 4 µg/mL (≈ 12.3 µM)
MIC (Candida parapsilosis [21]): 2 µg/mL (≈ 6.17 µM)

COS(=O)(=O)C[C@H]1OC(O)[C@H](NC(C)=O)[C@@H](O)[C@@H]1O (stereo partly drawn)
MIC (Pichia kudriavzevii [14]): > 4000 µg/mL
MIC (Candida albicans [11]): > 4000 µg/mL
MIC [15]: > 4000 µg/mL
MIC (Nakaseomyces glabratus [16]): > 4000 µg/mL

CN[C@@H]1[C@H](O[C@@H]2OC[C@@H](O)[C@H](O)[C@H]2O)[C@@H](O)[C@H](O[C@H]2c3cc(C)c(C(=O)N[C@H](C)C(=O)O)c(O)c3-c3c(cc4c(c3O)C(=O)c3cc(OC)cc(O)c3C4=O)[C@@H]2O)O[C@@H]1C [PRADIMICIN A]
ED50 (Candida albicans [22]): 8.9 mg/kg

C[C@@H]1[C@H](O)[C@@H](C)/C=C/C=C/C=C/C=C/C=C/C=C/C=C/[C@H](O[C@@H]2O[C@H](C)[C@@H](O)[C@H](N)[C@@H]2O)C[C@@H]2O[C@](O)(C[C@@H](O)C[C@@H](O)[C@H](O)CC[C@@H](O)C[C@@H](O)CC(=O)O[C@H]1C)C[C@H](O)[C@H]2C(=O)O [AMPHOTERICIN B]
MHC (Erythrocyte): 8 µg/mL

COc1ccc(NC(=O)COc2cccc(OCC(C)C)c2)cc1
MIC (Candida albicans [19]): 4 µg/mL (≈ 12.1 µM)
MIC (Candida albicans [20]): 4 µg/mL (≈ 12.1 µM)
MIC (Candida parapsilosis [21]): 2 µg/mL (≈ 6.07 µM)
MIC (Clavispora lusitaniae): 4 µg/mL (≈ 12.1 µM)
MIC (Nakaseomyces glabratus [23]): 4 µg/mL (≈ 12.1 µM)
